Series [1] is described as follows: Solubility in phosphate buffer (pH 7.4). To be noted: phosphate buffer pH 7.4, 1 mg/ml added, 16 hours, HPLC-UV. The procedure: The compound of the present invention was added to phosphate buffer (pH 7.4) at a concentration of 1 mg/ml and stirred. After 16 hours, the sample was filtered through a filter, and the supernatant was analyzed by HPLC-UV, thereby determining the content of compound dissolved.

Another series deals with STAM mice. The series can be described thus: Non-alcoholic steatohepatitis animal model (STAM mice), NAFLD activity score. It is filed as in vivo. To be noted: 30 mpk oral. On the procedure: STAM mice (SMC Laboratories, Inc., Japan), which are non-alcoholic steatohepatitis animal models, were used as experimental animals. These animal models were administered with streptozotocin immediately after birth, and fed with high-fat-diet after 3 weeks. Then, in the mouse model, non-alcoholic steatohepatitis occurred at 6 to 9 weeks, and liver fibrosis, cirrhosis and liver cancer occurred within 9 to 12 weeks.
Over 6 to 9 weeks after administration of streptozotocin, the compound of the present invention, dissolved in a mixture solution of Tween80 and 0.5% CMC aqueous solution (1:99 (v/v)) (Formulation Example 2), was orally administered to the animal models once a day (five times a week). As controls, telmisartan and OCA (obeticholic acid) were administered in the same manner.
At […] after administration of streptozotocin (a time point after 3-week administration of the compound), the mice were sacrificed, the liver of each mouse was dissected, the invasion of inflammatory cells was observed by […] of the liver tissue, and fibrosis of the liver tissue was observed by Sirius Red staining (see FIG. 42). In addition, the degrees of inflammation, fibrosis, liver cell ballooning and adipose accumulation observed were measured, data integration was performed, and the NAFLD (nonalcoholic fatty liver disease) activity score was statistically processed by t-test.

Another series has as its system C57BL/6 mice. The series can be described thus: Bleomycin-induced pulmonary fibrosis animal model. Type of series: in vivo. From the text: 5-week-old male C57BL/6 mice (weighed 18.2 to 20.5 g) (KOATECH, Korea) were used as experimental animals and divided into several groups, each consisting of 5 animals.
The experimental animals were housed in a housing box having a size of 369 L×156 W×132H (mm) (EU, USA, UK GL compliance) made of a polysulfone material in a SPF (Specific Pathogen Free) and BSL (Bio Safety Level) 2 grade facility. The number of animals in each housing box was 2 to 3 during the period of quarantine and acclimatization and was also 2 to 3 during the experimental period, and the housing conditions were set to a temperature of 22±2° C., a relative humidity of 50.0±15.0%, a ventilation cycle of 10 to 20 times/hr, a light-dark cycle (a photoperiod) of 12 hr/day (07:00 to 19:00), and an illumination intensity of 150 to 300 Lux.
Pulmonary fibrosis was induced by injecting a bleomycin solution directly into the lungs via the trachea according to the intratracheal instillation (IT) method of Kremer, Laxer and Berkman et al. Specifically, C57BL/6J mice were anesthetized through inhalation with 70% N2O and 30% O2 gas and 1.5% isoflurane, and the skin of the anterior neck thereof was excised and the organs under the muscle thereof were exposed and then carefully excised using ophthalmic surgical scissors. 50 μL of a solution of bleomycin in distilled water was injected directly into the lungs all at once via the excised organ by use of a 1 mL syringe fitted with a 19-gauge injection needle having a blunt tip. Immediately after the injection, the excised skin of the anterior neck was sutured and the mice were allowed to recover from the anesthetic, and then housed in a general housing cage. The administration of bleomycin was performed using a visual instillobot, and bleomycin-HCl 40 μg/50 μL was administered once and a pulmonary fibrosis induction period of 12 days was set.
The compound of the present invention was used after dissolution in 30% HPCD aqueous solution (Formulation Example 5), and the dose for each individual was calculated based on the recent body weight thereof. 12 Days after the administration of bleomycin, the compound of the present invention was administered once a day (5 times a week) for 2 weeks. As a control, pirfenidone which is a therapeutic agent for idiopathic pulmonary fibrosis was administered in the same manner.
On 15 days after administration of the compound, the mice were sacrificed, and then the right lung of each mouse was dissected and the weight thereof was measured. […] In particular, it is noted that the inhibitory effect of the compound in the group administered at 10 mpk was the highest compared to that in the group administered at 50 or 100 mpk and was also higher than that in the group administered with pirfenidone 100 mpk.
The amounts of hydroxyproline (HP) and collagen in the dissected right lung were measured using a known method.
Histopathology collagen morphometry of the dissected left lung tissue was performed using a known method (calculating the area of collagen in an optical image obtained by Sirius red staining of the lung tissue sample).
The pathological conditions of the left lung tissue dissected using a known method were examined by H&E and Sirius Red staining. […] In particular, it is noted that the inhibitory effect of the compound in the group administered at 10 mpk was the highest compared to that in the groups administered at other concentrations.
In order to examine the effect of each treatment in this Experiment on the liver, the liver of each of the sacrificed mice was dissected, and the pathological conditions of the liver tissue were examined by H&E staining.

A short description of series [2]: Concentration of compound in plasma and lung of bleomycin fibrotic mice. It is filed as in vivo. To be noted: 1 hour after final administration; pirfenidone 100 mpk, Compound 1 10-100 mpk PO. On the procedure:
The amounts of the compound present in the plasma and lung of each of the sacrificed mice (finally administered with each compound at 1 hour before sacrifice) were measured. […] If it is attempted to formulate the compound of the present invention in various manners, it is expected that the compound of the present invention can effectively treat fibrosis even at lower concentrations.

Values after ≈ are worked out from the molar mass of the structure shown.

As usually defined, the Solubility is the concentration that dissolves in the medium under given conditions. High values mean much dissolved substance, low ones little dissolved substance. In turn, `CC/C(=C(/CC)c1ccc(O)cc1)c1ccc(O)cc1` [Diethyl stilbesterol, reference compound] returned a Solubility in series [1] of 4.50 µg/mL (≈ 16.8 µM).

Take `CCCc1nc2c(C)cc(-c3nc4ccccc4n3C)cc2n1Cc1ccc(-c2ccccc2C(=O)O)cc1` [telmisartan, reference compound]: the “NAFLD activity score (t-test)” value in the series on STAM mice is “statistically significant anti-NASH effects”.

As to `Cc1ccc(=O)n(-c2ccccc2)c1` [Pirfenidone, reference compound], in the series with C57BL/6 mice (100 mpk PO), the “Protection Collagen %” value stood at 34%. For the same molecule, in the series with C57BL/6 mice (100 mpk PO, Sirius red), the “Mean Collagen % (histopathology collagen morphometry, left lung)” value worked out at 4.1%. Moreover, the “pathological condition of liver tissue, H&E staining” value in the series with C57BL/6 mice (bleomycin mice, 100 mpk) is “showed hepatotoxic symptoms”. In series [2], the “concentration of the compound in the lung” value is reported as “high” and the “concentration of the compound in the plasma” value is reported as “high”.

The values above are taken from patent US10370364B1, “Substituted chromenes for treatment of fibrosis or non-alcoholic steatohepatitis” (OSTEONEUROGEN INC., priority 2018, dated 2019).
